“Also recorded” adds a separate entry of the source.
Key:
Assay type in all cases: in vivo, cassava (Manihot esculenta)
[1] = system: cassava plants transgenic for H009 (EPSPS promoter driving the GAAT (G101A/A192T) EPSPS sequence); assay: Greenhouse glyphosate challenge, visual damage score; details: 50 mg active ingredient per plant applied dropwise to leaves of 4-5 week old plants, scored three times weekly, 1=no damage, 7=plant death
Experimental: (§1) Plants transgenic for 2×35S and native EPSPS promoter expression cassettes were established in the greenhouse following procedures described elsewhere (Taylor et al., 2012 Tropical Plant Biology, 5: 127-139; and Chauhan et al., 2015 Plant Cell Tissue and Organ Culture 121: 591-603). Glyphosate 5.4 was prepared in a solution containing Surface surfactant and applied to leaves of 4-5 week old plants. Glyphosate was applied at a rate of 50 mg active ingredient per plant in a dropwise manner to the youngest 1-2 fully expanded leaves. Plants were grown on the greenhouse bench under conditions described elsewhere (Taylor et al., 2012 Tropical Plant Biology, 5: 127-139; and Chauhan et al., 2015 Plant Cell Tissue and Organ Culture 121: 591-603). Three times per week plants were scored visually on a 1-7 scale for damaged caused by the glyphosate application, where 1=no damage and 7=death.

[2] = system: cassava plants transgenic for H010 (double 35S promoter driving the GAAT EPSPS sequence); assay: as above; details: 50 mg active ingredient per plant applied dropwise to leaves of 4-5 week old plants, scored three times weekly, 1=no damage, 7=plant death
Experimental: as §1

[3] = system: cassava plants transgenic for H013 (EPSPS promoter driving the TIPI (T102I/P106I) EPSPS sequence); assay: as above; details: 50 mg active ingredient per plant applied dropwise to leaves of 4-5 week old plants, scored three times weekly, 1=no damage, 7=plant death
Experimental: as §1

[4] = system: cassava plants transgenic for H014 (double 35S promoter driving the TIPI EPSPS sequence); assay: as above; details: 50 mg active ingredient per plant applied dropwise to leaves of 4-5 week old plants, scored three times weekly, 1=no damage, 7=plant death
Experimental: as §1

[5] = system: cassava plants transgenic for H063 (RB1 promoter driving the TIPA EPSPS sequence); assay: as above; details: two independent lines, assay as for FIG. 6 (50 mg active ingredient per plant; 1=no damage, 7=plant death)
Experimental: as §1
(§2) To test the suitability of the two best promoter candidates for driving EPSPS expression, the RB1 and DFP promoters were used to drive expression of TIPA gene models (as shown in FIG. 12) transformed into cassava as described for the other gene models in Example 2. Independent lines were challenged with glyphosate as described for the other gene models in Example 6.

[6] = system: cassava plants transgenic for H064 (DFP promoter driving the TIPA EPSPS sequence); assay: as above; details: four independent lines, assay as for FIG. 6 (50 mg active ingredient per plant; 1=no damage, 7=plant death)
Experimental: as §1, §2

[7] = system: WT non-transgenic cassava plant (susceptible control); assay: Greenhouse glyphosate challenge, phenotype; details: 50 mg active ingredient per plant, 21 days after application (FIG. 7)
Experimental: as §1

[8] = system: cassava plants edited with the H056 vector (double 35s promoter driving the TIPA enzyme); assay: Greenhouse glyphosate challenge of gene-edited plants; details: H056 edited event; 50 mg active ingredient per plant; assay as for FIG. 6; compared with H004 event
Experimental: as §1
Vectors containing gene editing reagents described in Example 8 were introduced into cassava callus via Agrobacterium transformation (for example, SEQ ID NOs: 11-14). The vectors were designed to repair the EPSPS promoter excision event either by HR or NHEJ from a standard T-DNA (H055; SEQ ID NO: 11), by HR only from a standard T-DNA (H056; SEQ ID NO: 12), or by HR only from a geminivirus replicon (H060; SEQ ID NO: 14). […]

[9] = system: non-transgenic cassava stem cuttings; assay: In vitro rooting test on glyphosate-containing media; details: glyphosate added to the medium at 0.05 mM
Experimental: Experiments were conducted to access the effects of glyphosate on in vitro rooting by culturing non transgenic shoots on media containing different concentrations of glyphosate ranging from 0.001 mM to 1.0 mM.
(§3) Plantlets were regenerated from five independent transformation events with each gene model vector. Apical stem cuttings approximately 1.5 cm in length were excised from in vitro shoot cultures of transgenic plant lines and cultured on Murashige and Skoog basal media supplemented with 0.05 mM glyphosate. A total of five Petri dishes were established per transgenic event with three plantlets cultured in each dish.
(§4) Plants were monitored for a period of three weeks. The number of roots formed, length of roots, shoot vigor, and overall plant health were recorded at weekly intervals.

[10] = system: shoots of transgenic events expressing high levels of the T102I/P106A (TIPA) enzyme; assay: as above; details: media containing 0.05 mM glyphosate; compared to events expressing the gene variant at lower levels; p=0.00
Source text: Gene models are shown in FIG. 2, and indicated as follows: H001, WT EPSPS driven by the TME7 EPSPS promoter; H002, T102I/P106A EPSPS driven by the TME7 EPSPS promoter; H003, WT EPSPS driven by the 2×35s promoter; H004, T102I/P106A EPSPS driven by the 2×35s promoter.
as §3, §4

O=C(O)CNCP(=O)(O)O [glyphosate]
average damage to the shoots, scale of 1-7 [1]: 4-6.5 | average damage to the shoots, scale of 1-7 [2]: 3-4 | average damage to the shoots, scale of 1-7 [3]: 4-5.5 | average damage to the shoots, scale of 1-7 [4]: 1-3.5 | average damage to the shoots, scale of 1-7 [5]: 3-4 | average damage to the shoots, scale of 1-7 [6]: around 4 | phenotype after herbicide challenge [7]: complete killing | glyphosate tolerance of edited plants (damage over time) [8]: equivalent to the best H004 event recovered; also recorded: equivalent to performance of the best H004 | effect on in vitro rooting and shoots [9]: Inhibited root formation and shoot death | number and length of roots formed [10]: more and longer roots

— patent US20190017067A1, “[…] PLANTS HAVING MODIFIED 5-ENOLPYRUVYLSHIKIMATE-3-PHOSPHATE SYNTHASE GENE REGULATION” (Regents of the University of Minnesota, priority 2016, published 2019)
